Laboratory results as given in patent publication US7220732B2, “Compounds useful as photodynamic therapeutic agents” (priority 2002, dated 2007).

Experiments:
Format in all cases: cell-based
MRC5 cells = experiment: Fluorescence microscopy uptake study in MRC5 cells; details: 10^−5 M
Method: (§1) Cells were seeded at a density of 30,000 cells/well in chamber slides and allowed to adhere for 24 hr. A compound of the present invention (10^−5 M) was then added to each chamber and incubated at 37° C. in the dark over time, for example, 15 min, 30 min, 1 hr, 3 hr and 6 hr. The medium was removed after the specified time and the cells were washed 4 times with medium free of that compound of the invention. The cells were then fixed with 3.7% (v/v) formaldehyde for 15 min at 37° C. The fixative solution was removed and the cells were washed twice with sterile PBS. DAPI nuclear stain (1/1000) was then incubated with the cells for 10 is min at 37° C., following which the cells were washed twice with PBS. Cells were then mounted in Vectashield (Trade Mark) mounting medium.
LabWorks (Bioimaging Systems) was used to calculate the average fluorescence intensity per cell for each of the different time points used in the uptake and efflux studies for the compounds of the present invention. […] The DAPI filter was used to accurately count the number of cells in each field of view and the rhodamine filter was used to quantify the fluorescence of the compounds of the present invention.
(§2) Using the assay method set out above under the heading “Fluorescence Microscopy”, the uptake of 2a was examined for HeLa and MRC5 […] cell lines and the data are illustrated in FIGS. 6a and 6b, respectively. […]

[1] = Confocal microscopy subcellular localisation; details: FIGS. 17–19
Method: Cells were seeded at a density of 30,000 cells/well in chamber slides and allowed to adhere for 24 hr. 2a (10^−5 M) was then added to each chamber and incubated at 37° C. in the dark for either 1 hr or 3 hrs at 37° C.—a one hour incubation was used for FIGS. 4 and 5. The medium was removed and the cells were washed 4 times with drug-free (2a free) medium. The cells were then fixed with 3.7% (v/v) formaldehyde for 15 min at 37° C. The fixative solution was removed and the cells were washed twice with sterile PBS. DAPI (4′,6-diamidino-2-phenylindole) nuclear stain (1/1000) was then incubated with the cells for 10 min at 37° C., following which the cells were washed twice with PBS. Cells were then mounted in Vectashield (Trade Mark) mounting medium.
The cells were viewed using a Leica TCSSL Confocal Laser Scanning microscope (the LSM510 META Confocal Microscope was used to visualise DAPI and 2a simultaneously).
These could be lysosomes which have a typical size range of 0.2–2 μm; peroxisomes which have a typical size range of 0.5–1.5 μm; or endosomes which have a typical size range of 0.2–2 μm. It will be appreciated that localisation of the photosensitising compounds of the invention in different subcellular sites may impact on how effective the photodynamic therapy may be.

HeLa cancer cells = experiment: Preliminary light toxicity assay; details: 24 hours exposure, 15 minutes irradiation >570 nm
Method: HeLa cancer calls were exposed to 2a in varying concentrations for 24 hours. 2a laden medium was removed and replaced with fresh medium. Cells were irradiated at constant temperature of 37° C. for 15 minutes with light from a 100 W or 500 W halogen lamp passed through a red glass and water filter barrier, thereby ensuring cells are irradiated with light of more than 570 nm. Irradiated cells were incubated for a further 24 hrs at 37° C. MT cell viability assay was performed.
The dark toxicity effect may be caused by the micellar delivery vehicle itself.

HeLa cells = experiment: Fluorescence microscopy uptake study in HeLa cells; details: 10^−5 M, water/Cremophor
Method: as §1
LabWorks (Bioimaging Systems) was used to calculate the average fluorescence intensity per cell for each of the different time points used in the uptake and efflux studies for the compounds of the present invention. […] The DAPI filter was used to accurately count the number of cells in each field of view and the rhodamine filter was used to quantify the fluorescence of the compounds of the present invention. […]
as §2

F[B-]1(F)n2c(-c3ccccc3)cc(-c3ccccc3)c2N=C2C(c3ccccc3)=CC(c3ccccc3)=[N+]21 [Compound 2a]
time of maximum uptake (MRC5 cells): 200 min
cellular localisation [1]: both diffuse and punctuated cytoplasmic localisation
dose response (HeLa cancer cells; 100 W light source, compared with 500 W): poorer response
EC50 (HeLa cancer cells; 500 W light source): 1000 nM
time of maximum uptake (HeLa cells): 300 min
